Values joined by “and” are separate entries in the source; they are usually repeats but may differ in a detail not shown here. Equal entries are not always repeated. Inconclusive results and toxic doses are left out.

The subject of this assay is L1210 leukemia ip in BDF1 mice, survival T/C. Nature of the assay: NCI In Vivo Anticancer Drug Screen. Data for tumor model L1210 Leukemia (intraperitoneal) in B6D2F1 (BDF1) mice. As to conditions: endpoint: mean survival time, higher = longer survival. In a few lines:
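Mice bearing the transplanted tumor received compound or vehicle. Survival of the treated group was divided by that of the vehicle-treated control group to give the ratio.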

Setting [1] is: dose: 100.0 mg/kg/injection, schedule: Q01DX001 (ip), vehicle: saline.
[2] abbreviates: dose: 200.0 mg/kg/injection, schedule: Q01DX001 (ip), vehicle: saline.
Where [3] appears, read: dose: 100.0 mg/kg/injection, schedule: Q01DX009 (ip), vehicle: saline with Tween-80.
[4] abbreviates: dose: 100.0 mg/kg/injection, schedule: Q01DX001 (ip), vehicle: saline with Tween-80.
[5] abbreviates: dose: 200.0 mg/kg/injection, schedule: Q01DX001 (ip), vehicle: saline with Tween-80.
[6] abbreviates: dose: 200.0 mg/kg/injection, schedule: Q01DX009 (ip), vehicle: saline with Tween-80.
Where [7] appears, read: dose: 400.0 mg/kg/injection, schedule: Q01DX001 (ip), vehicle: saline with Tween-80.
Setting [8] is: dose: 400.0 mg/kg/injection, schedule: Q01DX009 (ip), vehicle: saline with Tween-80.
[9] abbreviates: dose: 100.0 mg/kg/injection, schedule: Q04DX003 (ip), vehicle: Klucel (hydroxypropylcellulose) (HPC).
Where [10] appears, read: dose: 200.0 mg/kg/injection, schedule: Q04DX003 (ip), vehicle: Klucel (hydroxypropylcellulose) (HPC).
The mark [11] stands for this setting: dose: 400.0 mg/kg/injection, schedule: Q04DX003 (ip), vehicle: Klucel (hydroxypropylcellulose) (HPC).
[12] abbreviates: dose: 100.0 mg/kg/injection, schedule: Q01DX001 (ip), vehicle: carboxymethylcellulose (CMC).
[13] abbreviates: dose: 200.0 mg/kg/injection, schedule: Q01DX001 (ip), vehicle: carboxymethylcellulose (CMC).
[14] abbreviates: dose: 400.0 mg/kg/injection, schedule: Q01DX001 (ip), vehicle: carboxymethylcellulose (CMC).

Regarding `Nc1cccc(OCCOc2cccc([N+](=O)[O-])c2)c1`, the T/C is 101 % of control under setting [1]; 95 % of control under setting [2]; 98 % of control (dose: 400.0 mg/kg/injection, schedule: Q01DX001 (ip), vehicle: saline).

For `Cc1ccc(N2CCN(C3=CCC(C(C)C)CC3)CC2)cc1Cl` (centres undefined), the T/C under setting [3] is 106 % of control.

Regarding `ICc1cccc(CI)c1`, the T/C reads like this: (dose: 6.25 mg/kg/injection, schedule: Q01DX009 (ip), vehicle: carboxymethylcellulose (CMC)) 100 % of control; (dose: 6.25 mg/kg/injection, schedule: Q04DX003 (ip), vehicle: carboxymethylcellulose (CMC)) 111 % of control; (dose: 12.5 mg/kg/injection, schedule: Q01DX001 (ip), vehicle: other) 95 % of control; (dose: 12.5 mg/kg/injection, schedule: Q01DX009 (ip), vehicle: carboxymethylcellulose (CMC)) 94 % of control; (dose: 12.5 mg/kg/injection, schedule: Q04DX003 (ip), vehicle: carboxymethylcellulose (CMC)) 97 % of control; (dose: 25.0 mg/kg/injection, schedule: Q01DX001 (ip), vehicle: other) 95 % of control. Further, the T/C (dose: 25.0 mg/kg/injection, schedule: Q04DX003 (ip), vehicle: carboxymethylcellulose (CMC)) was 92 % of control.

Turning to `CCN(CC)CC(C)Nc1ccc([N+](=O)[O-])c2sc3ccccc3c(=O)c12` (centres undefined), the T/C is, setting by setting: (dose: 9.0 mg/kg/injection, schedule: Q01DX Z (ip), vehicle: carboxymethylcellulose (CMC)) 122 % of control; (dose: 10.0 mg/kg/injection, schedule: Q01DX Z (ip), vehicle: other) 107 % of control; (dose: 12.0 mg/kg/injection, schedule: Q01DX Z (ip), vehicle: methylcellulose (MC)) 108 % of control and 112 % of control; (dose: 17.7 mg/kg/injection, schedule: Q01DX Z (ip), vehicle: carboxymethylcellulose (CMC)) 108 % of control; (dose: 18.0 mg/kg/injection, schedule: Q01DX Z (ip), vehicle: methylcellulose (MC)) 110 % of control and 114 % of control; (dose: 26.0 mg/kg/injection, schedule: Q01DX Z (ip), vehicle: carboxymethylcellulose (CMC)) 122 % of control. Moreover, the T/C runs as follows: (dose: 27.0 mg/kg/injection, schedule: Q01DX Z (ip), vehicle: carboxymethylcellulose (CMC)) 122 % of control; (dose: 40.0 mg/kg/injection, schedule: Q01DX Z (ip), vehicle: carboxymethylcellulose (CMC)) 175 % of control; (dose: 41.0 mg/kg/injection, schedule: Q01DX Z (ip), vehicle: carboxymethylcellulose (CMC)) 169 % of control; (dose: 80.0 mg/kg/injection, schedule: Q01DX Z (ip), vehicle: carboxymethylcellulose (CMC)) 170 % of control; (dose: 90.0 mg/kg/injection, schedule: Q01DX Z (ip), vehicle: other) 171 % of control; (dose: 250.0 mg/kg/injection, schedule: Q## X000 (other), vehicle: carboxymethylcellulose (CMC)) 158 % of control. For the same molecule, the T/C (dose: 270.0 mg/kg/injection, schedule: Q01DX Z (ip), vehicle: other) was 97 % of control.

For `COc1ccc(Cl)cc1NC(=O)COc1ccccc1`, the T/C under setting [4] is 89 % of control; the T/C under setting [3] is 102 % of control; the T/C (dose: 100.0 mg/kg/injection, schedule: Q04DX002 (ip), vehicle: saline with Tween-80) is 97 % of control and 98 % of control; the T/C under setting [5] is 92 % of control; the T/C under setting [6] was 98 % of control and 102 % of control; the T/C (dose: 200.0 mg/kg/injection, schedule: Q04DX002 (ip), vehicle: saline with Tween-80) is 94 % of control and 97 % of control. The T/C is, setting by setting: under setting [7], 101 % of control; under setting [8], 93 % of control and 102 % of control; (dose: 400.0 mg/kg/injection, schedule: Q04DX002 (ip), vehicle: saline with Tween-80) 94 % of control and 101 % of control.

Regarding `CN(CCCCN(C)CCOS(C)(=O)=O)CCOS(C)(=O)=O`, the T/C by setting is: (dose: 1.7 mg/kg/injection, schedule: Q01DX015 (ip), vehicle: saline) 177 % of control; (dose: 8.3 mg/kg/injection, schedule: Q01DX001 (ip), vehicle: saline) 155 % of control; (dose: 12.5 mg/kg/injection, schedule: Q01DX001 (ip), vehicle: saline) 160 % of control; (dose: 18.7 mg/kg/injection, schedule: Q01DX001 (ip), vehicle: saline) 155 % of control; (dose: 25.0 mg/kg/injection, schedule: Q01DX001 (ip), vehicle: saline) 116 % of control.

Take `Cc1c(Cl)cccc1N=Cc1ccccc1O`: the T/C (dose: 50.0 mg/kg/injection, schedule: Q01DX009 (ip), vehicle: Klucel (hydroxypropylcellulose) (HPC)) was 96 % of control; the T/C (dose: 100.0 mg/kg/injection, schedule: Q01DX009 (ip), vehicle: Klucel (hydroxypropylcellulose) (HPC)) was 108 % of control; the T/C under setting [9] is 109 % of control; the T/C (dose: 200.0 mg/kg/injection, schedule: Q01DX009 (ip), vehicle: Klucel (hydroxypropylcellulose) (HPC)) is 110 % of control; the T/C under setting [10] was 107 % of control; the T/C under setting [11] was 98 % of control.

Take `CCCCn1cnc2c(SC)ncnc21`: the T/C is, setting by setting: (dose: 50.0 mg/kg/injection, schedule: Q01DX001 (ip), vehicle: saline) 101 % of control; under setting [1], 107 % of control; under setting [2], 103 % of control.

In the case of `CCOC(=O)c1cnc(=O)[nH]c1Nc1ccccc1Cl`, the T/C was 94 % of control under setting [9], 101 % of control under setting [10] and 90 % of control under setting [11].

Turning to `COC1OC2COC(c3ccccc3)OC2C(OC)C1OC` (centres undefined), the T/C is 100 % of control (dose: 12.5 mg/kg/injection, schedule: Q04DX002 (ip), vehicle: Klucel (hydroxypropylcellulose) (HPC)); 91 % of control (dose: 25.0 mg/kg/injection, schedule: Q04DX002 (ip), vehicle: Klucel (hydroxypropylcellulose) (HPC)); 103 % of control and 91 % of control (dose: 50.0 mg/kg/injection, schedule: Q04DX002 (ip), vehicle: Klucel (hydroxypropylcellulose) (HPC)); 108 % of control (dose: 100.0 mg/kg/injection, schedule: Q04DX002 (ip), vehicle: Klucel (hydroxypropylcellulose) (HPC)); 95 % of control (dose: 200.0 mg/kg/injection, schedule: Q04DX002 (ip), vehicle: Klucel (hydroxypropylcellulose) (HPC)).

With `c1ccc(Cn2cnc3c2nnn2ncnc32)cc1`, the T/C reads like this: under setting [12], 106 % of control; under setting [13], 102 % of control; under setting [14], 114 % of control.

As to `OC1c2ccccc2C(O)C2C3C=CC(C3)C12` (centres undefined), the T/C reads like this: (dose: 50.0 mg/kg/injection, schedule: Q01DX001 (ip), vehicle: carboxymethylcellulose (CMC)) 87 % of control; under setting [12], 97 % of control; under setting [13], 100 % of control; under setting [14], 97 % of control.

`COc1ccc(C(=O)Nc2ccccc2)cc1N`: the T/C (dose: 50.0 mg/kg/injection, schedule: Q01DX009 (ip), vehicle: carboxymethylcellulose (CMC)) was 96 % of control; the T/C (dose: 100.0 mg/kg/injection, schedule: Q01DX009 (ip), vehicle: carboxymethylcellulose (CMC)) was 103 % of control; the T/C (dose: 200.0 mg/kg/injection, schedule: Q01DX009 (ip), vehicle: carboxymethylcellulose (CMC)) is 94 % of control; the T/C under setting [14] was 120 % of control; the T/C (dose: 400.0 mg/kg/injection, schedule: Q01DX009 (ip), vehicle: carboxymethylcellulose (CMC)) was 100 % of control; the T/C (dose: 600.0 mg/kg/injection, schedule: Q01DX001 (ip), vehicle: carboxymethylcellulose (CMC)) is 114 % of control. The T/C is, setting by setting: (dose: 800.0 mg/kg/injection, schedule: Q01DX001 (ip), vehicle: carboxymethylcellulose (CMC)) 118 % of control; (dose: 1000.0 mg/kg/injection, schedule: Q01DX001 (ip), vehicle: carboxymethylcellulose (CMC)) 114 % of control.

As to `CN(C)CCN(C)/N=N/c1nc[nH]c1C(N)=O`, the T/C is, setting by setting: under setting [4], 101 % of control; under setting [3], 108 % of control; (dose: 100.0 mg/kg/injection, schedule: Q04DX003 (ip), vehicle: saline with Tween-80) 108 % of control; under setting [5], 95 % of control; under setting [6], 100 % of control; (dose: 200.0 mg/kg/injection, schedule: Q04DX003 (ip), vehicle: saline with Tween-80) 113 % of control. In addition, the T/C under setting [7] was 110 % of control; the T/C under setting [8] is 95 % of control; the T/C (dose: 400.0 mg/kg/injection, schedule: Q04DX003 (ip), vehicle: saline with Tween-80) is 106 % of control.

The record behind these values is PubChem BioAssay AID248 (DTP/NCI, 2004).
